# Measured values from patent US6548543B1, “Remedies or preventives containing cyclopentenone compounds as the active ingredient” (Takara Shuzo Co., Ltd., priority 1998, dated 2003).
# Numbered stars: 1 amine (or outer) side, 2 acyl side, 3 side chain; on linkers, the order of the positions; unused ones are H or OH. Bridge positions count the residues as written; N and C are the ends. Square brackets hold non-standard residues; d marks the D form. Peptide text beside a SMILES is read from it. I, II: the chains in the order shown. Actinocin(9to1) = Cc1c2oc3c(C)ccc(C(=O)[*:1])c3nc-2c(C(=O)[*:2])c(N)c1=O; NMeV = CN[C@H](C(=O)O)C(C)C; Sar = CNCC(=O)O
# How the values were obtained:
# [1] = tested on: HL-60 (ATCC CCL-240) cells; assay: Viability and apoptosis of HL-60 cells (Trypan Blue, optical microscope); format: cell-based; details: 24 hours; for IC50: Homo sapiens, Trypan Blue, read-out: Viability50 (concentration that results in a viability of 50%)
# Description: HL-60 (ATCC CCL-240) cells were cultured at 37° C. in RPMI 1640 medium (Bio Whittaker) containing 10% fetal calf serum (FCS; JRH) which had been treated at 56° C. for 30 minutes and suspended in RPMI 1640 medium at a concentration of 2.5×10^5 cells/5 ml.
# 10 μl each of solutions of diisobutyrylcyclopentenone, dimethoxyacetylcyclopentenone, dimethylfumarylcyclopentenone or dimethylmaleylcyclopentenone in 70% ethanol in water diluted to varying concentrations was added to 5 ml of the suspension. The mixtures were incubated at 37° C. for 24 hours in the presence of 5% Co2. 10 μl of aqueous actinomycin D (Sigma) solution (0.5 mg/ml), which is known as a reagent that induces apoptosis, was used in place of the sample and the mixture was incubated under the same conditions for confirmation.
# The cultured cells were examined under an optical microscope.
# Furthermore, a portion of the cells cultured as described above was stained with 0.4% Trypan Blue and examined under an optical microscope. The number of viable cells which were not stained and the number of dead cells which were stained blue were counted. The concentration of each of the samples that results in a viability of 50% (Viability50 μM) was determined.
# [2] = tested on: 70-kDa heat shock protein; assay: Induction of 70-kDa heat shock protein in HL-60 cells (Western blot); format: cell-based; set-up: key to Degree of induction of 70-kDa heat shock protein: − means that no induction was observed; ± means that a slight induction was observed; + represents the induction level; ++: Increased number of + means increased induction; +++: Increased number of + means increased induction; details: for Degree of induction of 70-kDa heat shock protein: HL-60, 6 hours
# Description: (1) 5 ml of RPMI 1640 medium containing 10% fetal calf serum and HL-60 (ATCC CCL-240) cells at a concentration of 2×10^5 cells/ml was placed in each well of a 6-well plate. The plate was incubated at 37° C. for 24 hours in the presence of 5% CO2. Dipropionylcyclopentenone, diisobutyrylcyclopentenone or di-2-hexenoylcyclopentenone at a final concentration of 0, 0.63, 1.3, 2.5, 5, 10 or 20 μM was then added thereto. The incubation was continued for additional 6 hours.
# After incubation, the cell number was counted. The cells were harvested by centrifugation, washed with PBS to prepare cells treated with one of the samples. Cells that were cultured in the same manner after heated at 45° C. for 10 minutes were also prepared.
# These treated cells were used for SDS-PAGE according to the method as described in Molecular Cloning [Cold Spring Harbor Laboratory Press (1989)]. The treated cells were suspended in SDS-PAGE Sample buffer at a concentration of 2.5×10^6 cells/ml. The cell suspensions were treated at 100° C. for 10 minutes. 5 μl each of the cell suspensions was applied to two SDS-PAGE gels (5% stacking gel, 10% separation gel) and electrophoresed. One of the gels was subjected to Coomassie staining. The other gel was blotted onto a polyvinylidene difluoride transfer membrane (Immobilon™, Millipore, Cat. #IPVH000-10). The membrane was blocked at 4° C. overnight using Block Ace (Dainippon Pharmaceutical, Cat. #UK-B25).
# The blocked membrane was reacted with a monoclonal antibody HSP72/73(Ab-1) (Oncogene Research Products, Cat. #HSP01), which specifically reacts with heat-inducible 70-kDa heat shock protein. The membrane was washed with TBS containing 0.05% Tween 20 followed by TBS. The membrane was then reacted with a peroxidase-conjugated secondary antibody HRP-Rabbit Anti-Mouse IgG (H+L) (Zymed Laboratories, Inc., Cat. #61-6520), and then washed as described above. The membrane reacted with the primary and secondary antibodies was reacted with a chemiluminol reagent Renaissance™ (Dupont NEN, Cat. #NEL-100). The membrane was then exposed to an X-ray film to confirm the induction of 70-kDa heat shock protein.
# [3] = tested on: Candida albicans TIMM0136; assay: Antifungal activity, growth inhibition; format: cell-based; details: 10 μl of solution at 100 or 500 μg/ml added to 100 μl culture, 30° C., 48 hours
# Description: Dipropionylcyclopentenone, diisobutyrylcyclopentenone and di-2-hexenoylcyclopentenone were used to examine their antifungal activities against Candida albicans TIMM0136.
# Candida albicans cells were cultured overnight in YNBG medium containing 0.67% Yeast Nitrogen Base (Difco) and 1.0% glucose (seed culture). The culture was then diluted with fresh Yeast Nitrogen Base medium to a concentration of 1×10^6 cells/ml. 100 μl of the dilution was dispensed into each well of a 96-well microtiter plate.
# 10 μl each of solutions of dipropionylcyclopentenone, diisobutyrylcyclopentenone or di-2-hexenoylcyclopentenone in 70% ethanol at a concentration of 100 μg/ml or 500 μg/ml, or 10 μl of 70% ethanol solution was added to the well. The plate was incubated without shaking at 30° C. for 48 hours (main culture).
# [4] = tested on: tumor necrosis factor (TNF)-α; assay: Endotoxin shock model, serum TNF-α after LPS; format: in vivo, CDF1 mice; details: serum 1.5 hours after LPS
# Description: (1) A model for endotoxin shock was constructed using CDF1 mice (8 weeks old, female, purchased from Japan SLC). Distilled water (control), or 10 mg/kg of diisopropionylcyclopentenone or diisobutyrylcyclopentenone was subcutaneously administered to a mouse. 20 μg of lipopolysaccharide (LPS; Sigma) was intraperitoneally administered to each mouse 30 minutes after the administration. Blood was collected from the mouse 1.5 hours after the administration with LPS. The amount of tumor necrosis factor (TNF)-α in a serum separated from the collected blood was measured using a commercially available ELISA kit (R&D). Each group consisted of 4 mice.
# (2) A model for endotoxin shock was constructed by intraperitoneally administering 20 μg of LPS to a CDF1 mouse (8 weeks old, female). 30 or 100 mg/kg of dipropionylcyclopentenone or diisobutyrylcyclopentenone was orally administered 30 minutes before the administration with LPS. Blood was collected from the mouse 1.5 hours after the administration with LPS. The amount of TNF-α in a serum separated from the collected blood was measured using an ELISA kit. Each group consisted of 4 mice.
# [5] = tested on: Ehrlich ascites carcinoma (EAC); assay: Ascitic cancer EAC, prolongation of survival; format: in vivo, ddY mouse; details: 5 successive days; for 30-day survival number: groups of 8 mice
# Description: (§1) (3) The carcinostatic activities of dipropionylcyclopentenone and diisobutyrylcyclopentenone against various ascitic cancers were examined using two types of cancer cells, Ehrlich ascites carcinoma (EAC) and Meth A, administered intraperitoneally or orally at a varying dose.
# (§2) Dipropionylcyclopentenone or diisobutyrylcyclopentenone was intraperitoneally or orally administered for 5 successive days from the day after the transplantation with cancer cells. Injectable distilled water was administered to a control group in a similar manner. Average days of survival, prolongation rate and 30-day survival number were calculated for groups each consisting of 8 mice.
# [6] = Single oral dose toxicity; format: in vivo; details: mouse
# Description: No toxicity is observed when a physiologically effective amount of the cyclopentenone derivative or an optical isomer thereof, or a salt thereof obtained according to the present invention is administered.
# Meth A = assay: Ascitic cancer Meth A, prolongation of survival, 5 successive days; format: in vivo, BALB/c mouse; details: intraperitoneal 10 mg/kg
# Description: as §1, §2
# [7] = tested on: λ-carrageenan pedal edema; assay: Carrageenan induced pedal edema; format: in vivo, Lewis rats; details: rat, 3 hours after carrageenan
# Description: Lewis rats (male, 9 weeks old, weighing about 250 g) were purchased from Seac Yoshitomi.
# Rats were fasted from 18 hours before the start of the experiments. Dipropionylcyclopentenone, dihexanoylcyclopentenone, di-2-hexenoylcyclopentenone, diisobutyrylcyclopentenone or dibenzoylcyclopentenone dissolved in olive oil (Nacalai Tesque) was orally administered to 4 rats per group at 1 or 10 mg/10 ml/kg.
# 100 μl of 1% λ-carrageenan (Wako Pure Chemical Industries) suspension in saline (Otsuka Pharmaceutical) was injected into the sole of right paw of a rat 0.5 hour after the administration of test substance to induce pedal edema. The volume of the right foot of the rat was measured using an instrument for measuring pedal volume (Ugo Basile) 3 hours after the injection with carrageenan. The measurements were expressed as the rate of increase calculated based on the volume of the right foot of each rat measured before the administration with carrageenan.
# FIG. 5 illustrate the relationship between the amount of cyclopentenone derivative administered and the rate of increase in edema in foot. The horizontal axis represents the dose […] and the vertical axis represents the rate of increase (%).
# [8] = oral, single dosage of 100 mg/kg
molecule,measurement,setting,value
"CC(C)C(=O)OC1C=CC(=O)C1OC(=O)C(C)C (stereo not drawn) [Diisobutyrylcyclopentenone, diisobutyrylcyclopentenone]",IC50,[1],8.8 µM
same,Concentration at which ability to induce HSP70 is maximized,[2],2.5 µM
same,Concentration at which ability to induce HSP70 is observed,[2],1.25 µM
same,Degree of induction of 70-kDa heat shock protein,[2]; 0.63 μM,±
same,Degree of induction of 70-kDa heat shock protein,[2]; 1.3 μM,+
same,Degree of induction of 70-kDa heat shock protein,[2]; 2.5 μM,+++
same,Degree of induction of 70-kDa heat shock protein,[2]; 5 μM,+++
same,Degree of induction of 70-kDa heat shock protein,[2]; 10 μM,+
same,Degree of induction of 70-kDa heat shock protein,[2]; 20 μM,+
same,MIC,"[3]; Candida albicans, TIMM0136, read-out: Minimum growth inhibitory concentration",500 µg/mL
same,Amount of TNF mean ± SE,[4]; 10 mg/kg subcutaneous 30 minutes before LPS,3.39 ± 0.33 ng/mL
same,TNF mean ± SE,[4]; 30 mg/kg oral 30 minutes before LPS,3.92 ± 0.13 ng/mL
same,TNF mean ± SE,[4]; 100 mg/kg oral 30 minutes before LPS,2.48 ± 0.43 ng/mL
same,Average days of survival,[5]; intraperitoneal 10 mg/kg,17.0 days
same,Prolongation rate,[5]; intraperitoneal 10 mg/kg,136%
same,30-day survival number,[5]; intraperitoneal 10 mg/kg,0
same,Average days of survival,[5]; intraperitoneal 30 mg/kg,25.3 days
same,Prolongation rate,[5]; intraperitoneal 30 mg/kg,>202%
same,30-day survival number,[5]; intraperitoneal 30 mg/kg,3
same,Average days of survival,[5]; oral 30 mg/kg,15.1 days
same,Prolongation rate,[5]; oral 30 mg/kg,121%
same,30-day survival number,[5]; oral 30 mg/kg,0
same,Average days of survival,[5]; oral 100 mg/kg,20.9 days
same,Prolongation rate,[5]; oral 100 mg/kg,167%
same,30-day survival number,[5]; oral 100 mg/kg,0
same,Death after single oral administration,"[6]; in vivo, po, 100 mg/kg",no death was observed
same,Average days of survival,Meth A,15.5 days
same,Prolongation rate,Meth A,132%
same,30-day survival number,Meth A; groups of 8 mice,0
"COCC(=O)OC1C=CC(=O)C1OC(=O)COC (stereo not drawn) [Dimethoxyacetylcyclopentenone, dimethoxyacetylcyclopentenone]",IC50,[1],14 µM
"COC(=O)/C=C/C(=O)OC1C=CC(=O)C1OC(=O)/C=C/C(=O)OC (stereo not drawn) [Dimethylfumarylcyclopentenone, dimethylfumarylcyclopentenone]",IC50,[1],2.9 µM
"Cc1c2oc3c(C)ccc(C(=O)N[C@@H]4C(=O)N[C@H](C(C)C)C(=O)N5CCC[C@H]5C(=O)N(C)CC(=O)N(C)[C@@H](C(C)C)C(=O)O[C@@H]4C)c3nc-2c(C(=O)N[C@@H]2C(=O)N[C@H](C(C)C)C(=O)N3CCC[C@H]3C(=O)N(C)CC(=O)N(C)[C@@H](C(C)C)C(=O)O[C@@H]2C)c(N)c1=O [actinomycin D, reference compound] (I: T[dV]P[Sar][NMeV] / II: T[dV]P[Sar][NMeV]; ester I:1-I:C, II:1-II:C; linker I:N-II:N via Actinocin(9to1))","Apoptosis-inducing / antiproliferation activity (condensation of nuclei, shrinking of cells, apoptotic bodies)",[1]; optical microscope,"Condensation of nuclei, shrinking of cells and formation of apoptotic bodies were observed"
di-2-hexenoylcyclopentenone,Degree of induction of 70-kDa heat shock protein,[2]; 0.63 μM,±
same,Degree of induction of 70-kDa heat shock protein,[2]; 1.3 μM,+
same,Degree of induction of 70-kDa heat shock protein,[2]; 2.5 μM,++
same,Degree of induction of 70-kDa heat shock protein,[2]; 5 μM,+++
same,Degree of induction of 70-kDa heat shock protein,[2]; 10 μM,±
same,Degree of induction of 70-kDa heat shock protein,[2]; 20 μM,−
same,Minimum growth inhibitory concentration,[3],500 µg/mL
same,Suppression of edema in foot (FIG. 5),[7]; 1 mg/kg oral,significant suppression
same,Suppression of edema in foot (FIG. 5),[7]; 10 mg/kg oral,significant suppression
same,Death after single oral administration,[6]; [8],no death was observed
dihexanoylcyclopentenone,Suppression of edema in foot (FIG. 5),[7]; 1 mg/kg oral,significant suppression
same,Suppression of edema in foot (FIG. 5),[7]; 10 mg/kg oral,significant suppression
same,Death after single oral administration,[6]; [8],no death was observed
